According to ChEMBL document CHEMBL4689842, “EUbOPEN Chemogenomics Library wave 1” (2021):

Tests used:
Assay type in all cases: toxicity, cell-based
HEK-293T = assay: Incucyte cell viability with HEK293T; conditions: human, 10 µM, compound concentration 10 uM
Fibroblast = assay: Incucyte cell viability with human fibroblast; conditions: 10 µM, compound concentration 10 uM
U2OS = assay: Incucyte cell viability with U2OS; conditions: human, 10 µM, compound concentration 10 uM
[1] = 0 h, replicate number 1, timepoint 0 hours
[2] = 0 h, replicate number 2, timepoint 0 hours
[3] = 6 h, replicate number 2, timepoint 6 hours
[4] = 12 h, replicate number 2, timepoint 12 hours
[5] = 18 h, replicate number 2, timepoint 18 hours
[6] = 24 h, replicate number 1, timepoint 24 hours
[7] = 24 h, replicate number 2, timepoint 24 hours
[8] = 6 h, replicate number 1, timepoint 6 hours
[9] = 12 h, replicate number 1, timepoint 12 hours
[10] = 18 h, replicate number 1, timepoint 18 hours
Also: filed as whole numbers so only -1 and 0 and 1 occur.

Row | Compound | Growth Rate (HEK-293T; [1]) | Growth Rate (HEK-293T; [2]) | Growth Rate (HEK-293T; [6]) | Growth Rate (HEK-293T; [7]) | Growth Rate (Fibroblast; [1]) | Growth Rate (Fibroblast; [8]) | Growth Rate (Fibroblast; [9]) | Growth Rate (Fibroblast; [10]) | Growth Rate (Fibroblast; [6]) | Growth Rate (U2OS; [1]) | Growth Rate (U2OS; [2]) | Growth Rate (U2OS; [8]) | Growth Rate (U2OS; [9]) | Growth Rate (U2OS; [10]) | Growth Rate (U2OS; [6]) | Growth Rate (HEK-293T; [8]) | Growth Rate (HEK-293T; [9]) | Growth Rate (HEK-293T; [10]) | Growth Rate (Fibroblast; [5]) | Growth Rate (U2OS; [5]) | other results
1 | CCOc1cc(N2CCC(O)CC2)ccc1Nc1ncc2c(n1)N(C)c1ccccc1C(=O)N2C | 0 | 1 | 1 | 0 | 1 | 1 | 1 | 1 | 1 | 0 | 1 | 0 | 1 | 1 | 1 | – | – | – | – | – | Growth Rate (HEK-293T; [3]): 1; Growth Rate (HEK-293T; [4]): 1; Growth Rate (HEK-293T; [5]): 1; Growth Rate (Fibroblast; [3]): 0
2 | CS(=O)(=O)NC[C@H]1CC[C@H](Nc2nc3c(s2)CCSc2ccccc2-3)CC1 | – | 0 | 0 | – | 0 | 0 | 1 | 1 | 0 | 0 | – | 0 | 0 | 0 | 1 | 0 | 0 | 0 | – | – | Growth Rate (U2OS; [4]): 1
3 | CN(C)S(=O)(=O)c1ccc(NC(=S)N2CCC(C(O)(c3ccccc3)c3ccccc3)CC2)cc1 | – | 0 | 0 | – | 0 | 0 | 0 | 0 | 0 | – | 0 | 1 | 0 | 1 | 0 | 0 | 0 | 0 | 1 | – | Growth Rate (Fibroblast; [7]): 1; Growth Rate (U2OS; [7]): 1
4 | Cc1nc(C(=O)N2CCC[C@H]2Cc2nnc(-c3ccccc3)o2)c(-c2ccccc2F)s1 | – | 0 | 0 | – | 1 | 0 | 0 | 1 | 0 | – | – | 0 | 0 | 1 | 0 | 0 | 0 | 0 | – | – | Growth Rate (Fibroblast; [7]): 1; Growth Rate (U2OS; [7]): 1
5 | CCn1cc(-c2cccc(C(F)(F)F)c2)c2sc(C(=N)NC3CCS(=O)(=O)CC3)cc2c1=O | – | – | 0 | – | – | 0 | 0 | 0 | 0 | – | 0 | 1 | 0 | 0 | 0 | 0 | 0 | 0 | – | 1 | Growth Rate (Fibroblast; [7]): 1; Growth Rate (U2OS; [7]): 1
6 | CCC(=O)N1CCOc2c(cc(-c3ccc(OC)c(OC)c3)cc2OC[C@H]2CCCN(C)C2)C1 | – | 1 | 0 | – | 0 | 0 | 1 | 1 | 1 | 0 | – | 0 | 1 | 1 | 1 | 0 | 0 | 0 | 0 | – | Growth Rate (HEK-293T; [5]): 1; Growth Rate (Fibroblast; [4]): 0; Growth Rate (Fibroblast; [7]): 0
7 | Cl.Cl.c1ccc([C@@H]2C[C@H]2NC2CCNCC2)cc1 | – | 1 | 1 | – | 0 | – | – | – | 1 | 0 | 1 | – | 1 | 1 | 1 | 0 | 1 | – | 1 | – | Growth Rate (Fibroblast; [4]): 1; Growth Rate (U2OS; [3]): 1
8 | CCC(=O)Nc1cccc(Oc2nc(Nc3ccc(N4CCN(C)CC4)cc3OC)ncc2Cl)c1 | – | – | 0 | – | – | – | 0 | 0 | 0 | 0 | – | 0 | 0 | 0 | 0 | 0 | 0 | 0 | – | 1 | Growth Rate (U2OS; [3]): 1
9 | CC(C)S(=O)(=O)c1ccc2nccc(Nc3ccc4scnc4c3)c2c1 | – | – | 0 | – | – | 0 | 0 | 0 | 0 | 1 | 0 | 0 | 1 | 0 | 1 | 0 | 0 | 0 | – | 1 | Growth Rate (Fibroblast; [2]): 0
10 | O=C(NCc1ccccc1)c1ccc(S(=O)(=O)NCc2ccccc2)cc1 | 0 | – | 0 | 1 | 0 | 0 | 0 | 1 | 0 | – | 1 | 0 | 1 | 0 | 1 | 0 | 1 | 1 | 0 | – | Growth Rate (HEK-293T; [3]): 1; Growth Rate (Fibroblast; [3]): 1; Growth Rate (Fibroblast; [4]): 1; Growth Rate (U2OS; [7]): 0
11 | CN(C)[C@@H]1CCN(c2cc(-c3ccccc3)nc3ccnn23)C1 [(R)-ZINC-3573] | 0 | – | 1 | 0 | 0 | 0 | 1 | 1 | 1 | – | – | – | 1 | 0 | 1 | 1 | 1 | 1 | 0 | 1 | Growth Rate (U2OS; [3]): 0; Growth Rate (U2OS; [4]): 0
12 | CC1=C(C#N)C(c2ccc3[nH]nc(C)c3c2)C(C#N)=C(C)N1 [BAY-474] | 0 | – | – | 1 | 1 | 0 | 1 | 1 | 1 | 0 | – | 0 | 0 | 0 | 0 | – | – | – | – | 1 | –
13 | CC(=O)C1=C(C)N(c2cccc(C(F)(F)F)c2)C(=O)N[C@H]1c1ccc(C#N)nc1 [BAY-677] | 0 | – | 1 | – | 0 | 0 | 0 | 0 | 0 | 0 | 1 | 1 | 1 | 1 | 0 | – | – | 1 | – | 0 | Growth Rate (Fibroblast; [3]): 1; Growth Rate (U2OS; [3]): 0; Growth Rate (U2OS; [4]): 0
14 | Cc1nc(C2CCN(C(=O)c3ccc(OC(F)(F)F)cc3N)CC2)c2ncc(N3CCN(C)CC3)cc2n1 [BAY-693] | 0 | 1 | – | 1 | 1 | 1 | 1 | 1 | 1 | 0 | – | 0 | 0 | 0 | 0 | – | – | – | – | 1 | Growth Rate (Fibroblast; [2]): 0; Growth Rate (U2OS; [3]): 1; Growth Rate (U2OS; [4]): 1; Growth Rate (U2OS; [7]): 1
